The target of the experiment is Protein disulfide-isomerase (Homo sapiens) (UniProt P07237). As to the kind of experiment: PDI inhibitors, insulin aggregation turbidity, confirmation, biochemical, dry powder samples, set 3 (AID 652199). Conditions: absorbance 650 nm, 90 min.

Active and inactive are the calls of the source.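 How the source made its calls: active means half-maximal inhibitory concentration AC50 at or below 30 µM; inactive means the rest, including compounds with no fitted curve.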

Sequence of Protein disulfide-isomerase (Homo sapiens) (P07237 whole entry, looked up): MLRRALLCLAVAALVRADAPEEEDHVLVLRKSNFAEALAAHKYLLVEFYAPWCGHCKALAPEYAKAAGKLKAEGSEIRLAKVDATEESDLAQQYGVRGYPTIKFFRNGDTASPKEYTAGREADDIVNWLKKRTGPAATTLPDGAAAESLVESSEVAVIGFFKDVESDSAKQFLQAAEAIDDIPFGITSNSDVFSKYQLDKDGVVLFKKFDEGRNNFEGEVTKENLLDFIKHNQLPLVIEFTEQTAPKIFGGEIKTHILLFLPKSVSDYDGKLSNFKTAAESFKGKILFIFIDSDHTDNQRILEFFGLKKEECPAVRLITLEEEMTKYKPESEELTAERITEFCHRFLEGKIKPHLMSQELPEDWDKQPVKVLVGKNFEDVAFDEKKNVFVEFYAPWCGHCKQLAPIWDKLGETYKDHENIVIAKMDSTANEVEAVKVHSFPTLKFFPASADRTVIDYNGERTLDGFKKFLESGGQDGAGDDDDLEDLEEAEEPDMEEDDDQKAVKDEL

`CC(C)(C)OC(=O)C1(CCOc2ccccc2)CCN(Cc2ccc(O)c(Cl)c2)CC1`: the AC50 (in general, the midpoint of the concentration-response curve, whichever way the signal moves) is 0.7 µM. For `CCOC(=O)C1(CCOc2ccccc2)CCN(C(=O)c2ccc(O)c(Cl)c2)CC1`, the AC50 was 1.5 µM.

With `CCOC(=O)C1(CCOc2ccccc2)CCN(Cc2ccc(O)cc2)CC1`, the AC50 is 20 µM. The value for `O=C(NC1CCCC1)C1(CCOc2ccccc2)CCN(Cc2ccc(O)c(Cl)c2)CC1` was 3 µM. For `CCOC(=O)C1(CCOc2ccccc2)CCN(Cc2ccc(OC)c(Cl)c2)CC1` the value was > 30 µM (inactive). The value for `C/C1=C\[C@@H](O)C(C)(C)CCCC2(C)OC2C[C@@H]1OC(=O)c1ccc(O)cc1` (some centres not stated) was 1.5 µM; that for `O=C(Nc1ccccc1)C1(CCOc2ccccc2)CCN(Cc2ccc(O)c(Cl)c2)CC1` was 30 µM. As to `CCOC(=O)c1c(CN2CCN(CCO)CC2)n(-c2ccccc2)c2cc(Br)c(O)cc12`, the AC50 was 3 µM. Turning to `CC(C)OC(=O)C1(CCOc2ccccc2)CCN(Cc2ccc(O)c(Cl)c2)CC1`, the AC50 is 0.7 µM. As for `CCN(C)C(=O)C1(CCOc2ccccc2)CCN(Cc2ccc(O)c(Cl)c2)CC1`, the AC50 is 3 µM.

`C/C1=C\C[C@H](OC(=O)c2ccc(O)cc2)/C(C)=C/[C@@H](O)C(C)(C)CCC1`: the AC50 was 5 µM. As for `CCOC(=O)C1(CCOc2ccccc2)CCN(Cc2ccc(O)c(Cl)c2)CC1`, the AC50 was 0.4 µM.

The values above are taken from PubChem BioAssay AID652199 (Broad Institute, 2013).
